Assay results: US11570987B2, “Pesticidal compounds and methods of use” (New York University, priority 2019, dated 2023)

Assays:
[1] = tested on: Drosophila melanogaster; assay: Residual exposure knockdown bioassay on female fruit flies; assay type: in vivo; settings: for KT50 against female Drosophila, comparison in words: dosage 1.06*10^−1 g/m^2, FIG. 8; for Drosophila knockdown times, comparison in words: Example 5, FIG. 5; for observed symptoms of exposed flies: fruit flies; for KT50 (median knockdown time): female Drosophila melanogaster, 2.0±0.1 mg, logistic regression of knockdown-time curves
Source text: Each symbol of FIGS. 2A-C corresponds to one female. Dashed lines indicate logistic regression of knockdown-time curves. The median knockdown time for each curve is denoted by its intersection with the horizontal KT50 marker. FIG. 2D illustrates comparison of the knockdown speeds (1/KT50) relative to DDT I. Error bars represent 95% confidence intervals (CI). Values with the same letter have overlapping 95% Cls and differences are considered insignificant. Inset: Photo of a typical female fly.
Female Drosophila melanogaster were exposed to 2.0±0.1 mg of DFDT, MFDT and DDT separately, in their crystalline and amorphous forms. The insects were monitored with a video camera until the entire population ceased to move. The videos then were analyzed to determine the knockdown times—a proxy for lethality—for each individual insect (Videos S1-S5). […] KT50 values, the times required for death of 50% of the insects, are the standard for assessing insecticide lethality (the lifetimes of individual insects differ because of the random nature of their contact with insecticide surfaces and varied susceptibility of a population). Here, the KT50 values were calculated by logistic regression of knockdown-time curves. […] Knockdown speeds, reciprocals of KT50 values, decreased in inverse order (FIG. 2d). The amorphous forms are always faster than their respective crystalline counterparts, with a-DFDT the fastest. […] Overall, the lethalities of the different solid forms of a given compound, as deduced from their knockdown speeds, were inversely correlated with their thermodynamic stability.
The relationships between functional groups that are directly attached to the central carbon atom and Drosophila knockdown times are shown in FIG. 6. […] Physical state of the compound at room temperature, and the median knockdown time (KT50) against female Drosophila are denoted below each compound. The dosage for the residual bioassay was 1.06*10^−1 g/m^2.
Residual action, which refers to the length of time a compound or composition may exist in a particular environment and remain effective, is a good proxy for the insecticidal activity of a compound. Each crystalline form was ground to a particle size similar to that of the liquid particles prepared by fine mist spraying. Lethality measurements were performed in duplicate for each solid-state form, each accompanied by two controls (no insecticide). Each microcrystalline form was added to a 10.0 cm diameter polystyrene petri dish (2.0 mg per dish), which was subsequently shaken to disperse the microcrystals throughout the petri dish. Amorphous forms were prepared by fine mist spraying a stock solution containing 70.0 mg of the respective insecticide in 10.0 mL hexane onto the top and bottom of 10.0 cm diameter polystyrene petri dishes (two sprays=0.280 mL) and allowing the hexane to evaporate at room temperature, resulting in 2.0 mg of liquid insecticide in each petri dish. 25 female adults Drosophila were sedated with carbon dioxide and flies were transferred to each petri dish. The top of the dish was then placed over the bottom and the motion of the mosquitos or fruit flies was recorded with a video camera (Sony HDR-CX455). The knockdown time was measured for each individual, with knockdown associated with an insect laying on the bottom surface of the petri dish in a supine position without moving from its original position after 10 seconds.

[2] = Acute oral toxicity, Fixed Dose Procedure (OECD Guideline 420); assay type: in vivo, rats; settings: in vivo; rat, acute oral
Description: (§1) Fixed Dose Procedure (OECD Guideline 420):
(§2) (RS)-MFTE and (RS)-PFTE were test under OECD, Test No. 420: Acute Oral Toxicity—Fixed Dose Procedure, OECD Guidelines for the Testing of Chemicals, Section 4, OECD Publishing, Paris (2002), which is hereby incorporated by reference in its entirety.
(§3) Groups of five young adult animals (rats) of one sex in a stepwise procedure using the fixed doses of 5, 50, 300 and 2000 mg/kg in the main study as shown in FIG. 12B. Most tests are likely to be completed with either one or two sighting study steps and one main study step, thus using between 5 and 7 animals. Up to 5 animals are used in a limit test.

[3] = tested on: rats; assay: as above; assay type: in vivo; settings: for clinical symptoms: 5 animals; for clinical outcome of the animal in the pilot experiment: single animal
Description: as §1, §2, §3

[4] = tested on: Drosophila melanogaster; assay: Residual exposure knockdown bioassay on female fruit flies; assay type: in vivo; settings: for speed of action (lethality) of enantiomers and racemate, in words: fruit flies, different dosages (FIG. 9, FIG. 10)
[5] = Stability of amorphous forms at room temperature; assay type: physicochemical
Source text: DFDT and MFDT were synthesized from trichloroacetate and para-fluorobenzaldehyde to give 1-(4-fluorophenyl)-2,2,2-trichloroethanol. Subsequent reaction with fluorobenzene or chlorobenzene afforded DFDT and MFDT, respectively. Two polymorphic crystalline forms of DFDT (DFDT-I, -II) and three polymorphic forms of racemic MFDT ((RS)-MFDT-I, -II, -III) were discovered. DFDT-I single crystals could be obtained from a variety of solvents and DFDT-II single crystals from diethyl ether. (RS)-MFDT-I could be crystallized from a variety of solvents. The (R)- and (S)-MFDT enantiomers were resolved by chromatography on a chiral stationary phase, and single crystals were grown from a variety of solvents. Curiously, single crystals of (RS)-MFDT-II and -III were obtained by crystallization from the melt at >30° C. and 25° C., respectively, using seed crystals of either the R or S isomers. These crystalline forms, six total, were characterized by single crystal X-ray diffraction (FIG. 1). […] The Tm of the enantiomorphs was 47° C. Amorphous DFDT (a-DFDT), prepared by supercooling melts or fine mist spraying of solutions, afforded broad X-ray scattering halos (FIG. 1H) and was stable for 25 days at room temperature. Amorphous resolved and racemic MFDT (a-(R)- and a-(S)-MFDT, and a-(RS)-MFDT, respectively; FIG. 1H) were stable for 10 days at room temperature. These observations contrast with a-DDT, which transformed to crystalline DDT Form I within 5 hours at room temperature.

[6] = tested on: Anopheles quadrimaculatus; assay: Knockdown bioassay on female Anopheles mosquitoes in coated petri dishes; assay type: in vivo; settings: for knockdown speed, times faster than a-DDT: Anopheles and Aedes mosquitoes (FIG. 3F); for KT50: female Anopheles, 1.0±0.1 mg amorphous form in petri dish
Source text: (§4) Each symbol corresponds to one female. Dashed lines indicate logistic regression of knockdown-time curves. The median knockdown time for each curve is denoted by its intersection with the horizontal KT50 marker. FIG. 3F illustrates the relative knockdown speeds of amorphs. Error bars represent 95% confidence intervals (CI). Values with the same letter have overlapping 95% Cls and differences are considered insignificant. Insets: Photos of typical Anopheles and Aedes mosquito females.
(§5) Female Anopheles and Aedes mosquitoes exposed to 1.0±0.1 mg of various crystalline forms followed the same knockdown trend as Drosophila, see Example 2, with KT50 values decreasing in the order DDT-I>(RS)-MFDT-I>DFDT-I>DFDT-II (FIGS. 3A and 3B). […] Female mosquitoes were introduced into petri dishes coated with 1.0±0.1 mg of the amorphous forms, and their motions recorded (Videos S8-S10). KT50 values for a-DFDT and a-(RS)-MFDT against Anopheles were 29 and 39 minutes, and against Aedes were 30 and 40 minutes, respectively (FIGS. 3C and 3D). Corresponding KT50 values for a-DDT were much larger (120 and 112 minutes). Accordingly, the knockdown speeds for a-DFDT and a-(RS)-MFDT are 4 and 3 times faster than a-DDT, respectively (FIG. 3F).

[7] = tested on: Aedes aegypti; assay: Knockdown bioassay on female Aedes mosquitoes in coated petri dishes; assay type: in vivo; settings: 1.0±0.1 mg amorphous form in petri dish
Source text: as §4, §5

## OC(c1ccc(F)cc1)C(Cl)(Cl)Cl (racemic) [(RS)-MFTE, 1-(4-fluorophenyl)-2,2,2-trichloro-ethanol]
[1]
  KT50 against female Drosophila, comparison in words: comparable to that of crystalline deltamethrin Form I
[2]
  LD50: 300 to 2000 mg/kg
[3]; 300 mg/kg b.w.
  necropsy findings: no relevant changes were noted except for the spleen
  clinical symptoms: only mild symptoms (underactivity)
[3]; 2000 mg/kg b.w.
  necropsy findings: changes were seen mainly in the gastrointestinal tract
  clinical outcome of the animal in the pilot experiment: had to be euthanized 1 day after application
[4]
  speed of action (lethality) of enantiomers and racemate, in words: lies in between of (R) and (S)-MFTE

## OC(c1c(F)c(F)c(F)c(F)c1F)C(Cl)(Cl)Cl (racemic) [(RS)-PFTE, 1-perfluorophenyl-2,2,2-trichloro-ethanol]
[1]
  Drosophila knockdown times, comparison in words: smaller than amorphous DFDT
  KT50 against female Drosophila, comparison in words: comparable to that of crystalline deltamethrin Form I
[2]
  LD50: 300 to 2000 mg/kg
[3]; 300 mg/kg b.w.
  necropsy findings: no abnormal findings during necropsy
  clinical symptoms: no clinical symptoms except for soft feces
[3]; 2000 mg/kg b.w.
  necropsy findings: changes were seen mainly in the gastrointestinal tract
  clinical outcome of the animal in the pilot experiment: had to be euthanized on day 1 approx. 3 h after application

## Fc1ccc(C(c2ccc(Cl)cc2)C(Cl)(Cl)Cl)cc1 (racemic) [a-(RS)-MFDT, 1,1,1-trichloro-2,2-(4-chlorophenyl)-(4-fluorophenyl)-ethane]
[5]; room temperature
  time the amorphous form was stable: 10 days
[6]
  knockdown speed, times faster than a-DDT: 3 times
  KT50: 39 min
[7]
  KT50: 40 min

## O[C@H](c1ccc(F)cc1)C(Cl)(Cl)Cl [(R)-MFTE, (R)-1-(4-fluorophenyl)-2,2,2-trichloro-ethanol]
[4]; dosage above 5.30*10^−3/m^2
  speed of action against deltamethrin Form I, in words: even faster in action than deltamethrin Form I
[4]
  speed of action (lethality) of enantiomers and racemate, in words: always faster in action than (S)-MFTE

## O[C@H](c1c(F)c(F)c(F)c(F)c1F)C(Cl)(Cl)Cl [(R)-PFTE, (R)-1-perfluorophenyl-2,2,2-trichloro-ethanol]
[4]; dosage below 1.06*10^−1/m^2
  speed of action against (RS)-PFTE, in words: faster in action than (RS)-PFTE
[4]
  speed of action (lethality) of enantiomers and racemate, in words: always faster in action than (S)-PFTE
[4]; high dosage 1.06*10^−1/m^2 and above
  speed of action against deltamethrin Form I, in words: slower in action than deltamethrin Form I
[4]; low dosage 5.30*10^−3/m^2
  speed of action against deltamethrin, in words: faster in action than deltamethrin

## Clc1ccc(C(c2ccc(Cl)cc2)C(Cl)(Cl)Cl)cc1 [DDT, 1,1,1-trichloro-2,2-bis(4-chlorophenyl)ethane, reference compound]
[1]
  KT50 against female Drosophila, comparison in words: much larger
  observed symptoms of exposed flies: induced hyperactivity followed by paralysis, and then death

## Clc1ccc(C(c2ccc(Cl)cc2)C(Cl)(Cl)Cl)cc1 [DDT-I, 1,1,1-trichloro-2,2-bis(4-chlorophenyl)ethane, reference compound]
[1]
  KT50 (median knockdown time): 261 min

## Fc1ccc(C(c2ccc(F)cc2)C(Cl)(Cl)Cl)cc1 [DFDT, reference compound]
[1]
  KT50 against female Drosophila, comparison in words: much larger
  observed symptoms of exposed flies: induced hyperactivity followed by paralysis, and then death

## Fc1ccc(C(c2ccc(Cl)cc2)C(Cl)(Cl)Cl)cc1 (stereo not drawn) [MFDT, 1,1,1-trichloro-2,2-(4-chlorophenyl)-(4-fluorophenyl)-ethane]
[1]
  observed symptoms of exposed flies: induced hyperactivity followed by paralysis, and then death

## CC(O)(c1c(F)c(F)c(F)c(F)c1F)C(Cl)(Cl)Cl (stereo not drawn) [PFTP, 2-(perfluorophenyl)-1,1,1-trichloro-propan-2-ol]
[1]
  KT50 against female Drosophila, comparison in words: comparable to that of crystalline deltamethrin Form I

## OC(c1ccc(C(F)(F)F)cc1)C(Cl)(Cl)Cl (stereo not drawn) [TFMTE, 1-(4-(trifluoromethyl)phenyl)-2,2,2-trichloro-ethanol]
[1]
  Drosophila knockdown times, comparison in words: faster than DDT Form I, but not as fast as PFTE

## Fc1ccc(C(c2ccc(Cl)cc2)C(Cl)(Cl)Cl)cc1 [a-(R)-MFDT, 1,1,1-trichloro-2,2-(4-chlorophenyl)-(4-fluorophenyl)-ethane]
[5]; room temperature
  time the amorphous form was stable: 10 days

## Clc1ccc(C(c2ccc(Cl)cc2)C(Cl)(Cl)Cl)cc1 [a-DDT, 1,1,1-trichloro-2,2-bis(4-chlorophenyl)ethane]
[5]; room temperature
  time to transformation to crystalline DDT Form I: ≤ 5 h
[6]
  KT50: 120 min
[7]
  KT50: 112 min

## Fc1ccc(C(c2ccc(F)cc2)C(Cl)(Cl)Cl)cc1 [a-DFDT]
[5]; addition of 10 wt % PEG 100 emulsifier
  time the amorphous form is stable: at least 120 days
[5]; room temperature
  time the amorphous form was stable: 25 days
[1]
  KT50 (median knockdown time): 54 min
[6]
  knockdown speed, times faster than a-DDT: 4 times
  KT50: 29 min
[7]
  KT50: 30 min
